Test system: C2C12 myotubes
Assay: DEX-induced muscle atrophy model, Western blot
Assay type: cell-based
Conditions: 10 μM DEX 24 h, alone or with 10 or 100 μM Myoki
Protocol: To induce C2C12 myotube differentiation, myoblasts were seeded in 6-well plates at 5 × 10^5 cells per well. Once reaching 90% confluency, they were cultured in DMEM supplemented with 2% horse serum (Thermo Fisher Scientific) and 1% penicillin-streptomycin. […] Differentiation was observed using an optical microscope (LEICA, 100×). Myotube morphology (length and diameter) was quantified in ImageJ (NIH) using the same images: myotube length was measured by tracing the long axis of each myotube (end-to-end), and myotube diameter was measured as the short-axis width at three positions along each myotube; the mean of the three width values was recorded as the diameter. For each experimental group, three randomly captured images (fields) were analyzed, and at least 15–20 myotubes per image were quantified under identical imaging settings.
Treated C2C12 cells (5 × 10^5 cells/well) were harvested in lysis buffer (Sigma-Aldrich, 2910) and centrifuged at 12,000 g for 10 min; proteins in the supernatant were collected. Protein concentrations were measured using the BCA Protein Assay Kit (Thermo Fisher Scientific). Each 20 μg sample was separated using 10% SDS–PAGE and transferred onto a polyvinylidene fluoride membrane (Millipore, Burlington, MA, USA). Non-specific binding was blocked with 5% non-fat dry milk for 1 h. The membranes were incubated overnight with primary antibodies: Anti-Myf5 (Abcam, ab125078), Anti-Myf6 (Abcam, ab182842), Anti-MyoD (Santa Cruz, sc-377460), Anti-MyoG (Santa Cruz, sc-52903), Anti-α-actinin (Santa Cruz, sc-17829), Anti-MYH3 (Santa Cruz, sc-53091), Anti-p-mTOR (Ser2448) (CST, #5536), Anti-p-Akt (Ser473) (CST, #9271), Anti-p-p70 S6 Kinase (Thr389) (CST, #9205), Anti-myostatin (Abcam, ab124721), Anti-atrogin-1/MAFbx (Santa Cruz, sc-166806), and Anti-MuRF1 (Santa Cruz, sc-398608). Membranes were then incubated for 1 h with HRP-conjugated secondary antibodies. Blot images were captured with the ECL system (Amersham, UK) and quantified using ImageJ.

## C[C@@H]1C[C@H]2[C@@H]3CCC4=CC(=O)C=C[C@]4(C)[C@@]3(F)[C@@H](O)C[C@]2(C)[C@@]1(O)C(=O)CO [DEX, dexamethasone, reference compound]
  MuRF1 expression: significant increase
  atrogin-1/MAFbx expression: significant increase
  expression levels of differentiated muscle fiber structural proteins: significantly reduced
  phosphorylation levels of muscle growth signaling proteins (Akt, mTOR, p70S6K): significantly reduced

— PMC12935919 (Frontiers in Pharmacology, 2026)
